Values after ≈ are worked out from the molar mass of the structure shown.
How the values were obtained:
Assay type in all cases: functional
[1] = test system: Staphylococcus epidermidis; experiment: Antibacterial activity against methicillin-resistant Staphylococcus epidermidis 8354 clinical isolate assessed as growth inhibition after 12 hr by CLSI broth microdilution method; conditions: Staphylococcus epidermidis, 8354, 12 h
[2] = test system: Staphylococcus epidermidis; experiment: Antibacterial activity against methicillin-resistant Staphylococcus epidermidis 8311 clinical isolate assessed as growth inhibition after 12 hr by CLSI broth microdilution method; conditions: Staphylococcus epidermidis, 8311, 12 h
Staphylococcus aureus [3] = experiment: Antibacterial activity against methicillin-resistant Staphylococcus aureus 8166 clinical isolate assessed as growth inhibition after 12 hr by CLSI broth microdilution method; conditions: Staphylococcus aureus, 8166, 12 h
Staphylococcus aureus [4] = experiment: Antibacterial activity against methicillin-resistant Staphylococcus aureus 8282 clinical isolate assessed as growth inhibition after 12 hr by CLSI broth microdilution method; conditions: Staphylococcus aureus, 8282, 12 h
Salmonella = experiment: Antibacterial activity against Salmonella assessed as growth inhibition after 12 hr by CLSI broth microdilution method
Escherichia coli = experiment: Antibacterial activity against Escherichia coli ATCC 25922 assessed as growth inhibition after 12 hr by CLSI broth microdilution method; conditions: ATCC 25922, 12 h
[5] = test system: Staphylococcus epidermidis; experiment: Antibacterial activity against Staphylococcus epidermidis RP62A assessed as growth inhibition after 12 hr by CLSI broth microdilution method

Row | Structure (SMILES) | MIC (Salmonella) [µM] | MIC (Escherichia coli) [µM] | MIC [5] [µM] | MIC [1] [µM] | MIC [2] [µM] | MIC (Staphylococcus aureus [3]) [µM] | MIC (Staphylococcus aureus [4]) [µM]
1 | O=C(O)COc1ccc(/C=C2/S/C(=N\c3ccccc3Cl)N(c3ccccc3Cl)C2=O)cc1 | > 200 | > 200 | 3.13 (≈ 1.56 µg/mL) | 3.13 (≈ 1.56 µg/mL) | 3.13 (≈ 1.56 µg/mL) | 12.5 (≈ 6.24 µg/mL) | 3.13 (≈ 1.56 µg/mL)
2 | O=C(O)COc1ccc(/C=C2/S/C(=N\c3ccc(Br)cc3)N(c3ccc(Br)cc3)C2=O)cc1 | > 200 | > 200 | 3.13 (≈ 1.84 µg/mL) | 3.13 (≈ 1.84 µg/mL) | 3.13 (≈ 1.84 µg/mL) | 6.25 (≈ 3.68 µg/mL) | 3.13 (≈ 1.84 µg/mL)
3 | O=C(O)COc1ccc(/C=C2/S/C(=N\c3cccc(Cl)c3)N(c3cccc(Cl)c3)C2=O)cc1 | > 200 | > 200 | 3.13 (≈ 1.56 µg/mL) | 3.13 (≈ 1.56 µg/mL) | 3.13 (≈ 1.56 µg/mL) | 12.5 (≈ 6.24 µg/mL) | 3.13 (≈ 1.56 µg/mL)
4 | O=C(O)COc1ccc(/C=C2/S/C(=N\c3ccc(Cl)cc3)N(c3ccc(Cl)cc3)C2=O)cc1 | > 200 | > 200 | 1.57 (≈ 0.784 µg/mL) | 1.57 (≈ 0.784 µg/mL) | 1.57 (≈ 0.784 µg/mL) | 6.25 (≈ 3.12 µg/mL) | 3.13 (≈ 1.56 µg/mL)
5 | COc1cc(/C=C2/S/C(=N\c3ccc(Cl)cc3)N(c3ccc(Cl)cc3)C2=O)ccc1OCC(=O)O | > 200 | > 200 | 6.25 (≈ 3.31 µg/mL) |  |  |  | 
6 | O=C(O)COc1cccc(/C=C2/S/C(=N\c3ccc(Cl)cc3)N(c3ccc(Cl)cc3)C2=O)c1 | > 200 | > 200 | 25 (≈ 12.5 µg/mL) |  |  |  | 
7 | O=C(O)c1ccc(/C=C2/S/C(=N\c3ccc(Br)cc3)N(c3ccc(Br)cc3)C2=O)cc1 | > 200 | > 200 | 12.5 (≈ 6.98 µg/mL) |  |  |  | 
8 | O=C(O)c1ccc(/C=C2/S/C(=N\c3ccc(Cl)cc3)N(c3ccc(Cl)cc3)C2=O)cc1 | > 200 | > 200 | 3.13 (≈ 1.47 µg/mL) | 3.13 (≈ 1.47 µg/mL) | 3.13 (≈ 1.47 µg/mL) | 12.5 (≈ 5.87 µg/mL) | 3.13 (≈ 1.47 µg/mL)
9 | C[C@H]1COc2c(N3CCN(C)CC3)c(F)cc3c(=O)c(C(=O)O)cn1c23 [LEVOFLOXACIN] |  |  |  | 22.1 (≈ 7.99 µg/mL) | 22.1 (≈ 7.99 µg/mL) | 22.1 (≈ 7.99 µg/mL) | 22.1 (≈ 7.99 µg/mL)
10 | COc1cccc(OC)c1C(=O)N[C@@H]1C(=O)N2[C@@H]1SC(C)(C)[C@@H]2C(=O)O [METHICILLIN] | > 200 | > 200 | 5.26 (≈ 2 µg/mL) | 65.7 (≈ 25 µg/mL) | 65.7 (≈ 25 µg/mL) | 65.7 (≈ 25 µg/mL) | 65.7 (≈ 25 µg/mL)

Second part, led by results:

Row | MIC (Salmonella) [µM] | MIC (Escherichia coli) [µM] | MIC [5] [µM] | Structure (SMILES) | MIC [1] [µM] | MIC [2] [µM] | MIC (Staphylococcus aureus [3]) [µM] | MIC (Staphylococcus aureus [4]) [µM]
11 | > 200 | > 200 | 25 (≈ 11.7 µg/mL) | O=C(O)COc1ccc(/C=C2/S/C(=N\c3ccc(F)cc3)N(c3ccc(F)cc3)C2=O)cc1 |  |  |  | 
12 | > 200 | > 200 | 50 (≈ 25.8 µg/mL) | CCc1ccccc1/N=C1\S/C(=C/c2ccc(OCC(=O)O)c(OC)c2)C(=O)N1c1ccccc1CC |  |  |  | 
13 | > 200 | > 200 | 50 (≈ 20 µg/mL) | O=C(O)c1ccc(/C=C2/S/C(=N\c3ccccc3)N(c3ccccc3)C2=O)cc1 |  |  |  | 
14 | > 200 | > 200 | 25 (≈ 10.9 µg/mL) | O=C(O)c1ccc(/C=C2/S/C(=N\c3ccc(F)cc3)N(c3ccc(F)cc3)C2=O)cc1 |  |  |  | 
15 | > 200 | > 200 | > 200 | O=C(O)c1ccc(COc2ccc(/C=C3/S/C(=N\c4ccc(Cl)cc4)N(c4ccc(Cl)cc4)C3=O)cc2)cc1 |  |  |  | 
16 | > 200 | > 200 | 100 (≈ 43 µg/mL) | O=C(O)COc1ccc(/C=C2/S/C(=N\c3ccccc3)N(c3ccccc3)C2=O)cc1 |  |  |  | 
17 | > 200 | > 200 | 11.5 (≈ 4.02 µg/mL) | CC1(C)S[C@@H]2[C@H](NC(=O)[C@H](N)c3ccccc3)C(=O)N2[C@H]1C(=O)O [AMPICILLIN] |  |  |  | 

Reference: ChEMBL document CHEMBL3046844, “Synthesis of novel 4-thiazolidione derivatives as antibacterial agents against drug-resistant Staphylococcus epidermidis” (2013)
